Data on 29 compounds can be found in US10758534B2 (Vertex Pharmaceuticals Incorporated, priority 2014, dated 2020).

Where only a bound is given, the exact number is not on record here.

The target of the first test is T1, F508del (Homo sapiens, UniProt P13569, DEL508-508).
T1 construct: expressed in transfected cells
T1 sequence (P13569 with tags, fused parts or gaps DEL508-508): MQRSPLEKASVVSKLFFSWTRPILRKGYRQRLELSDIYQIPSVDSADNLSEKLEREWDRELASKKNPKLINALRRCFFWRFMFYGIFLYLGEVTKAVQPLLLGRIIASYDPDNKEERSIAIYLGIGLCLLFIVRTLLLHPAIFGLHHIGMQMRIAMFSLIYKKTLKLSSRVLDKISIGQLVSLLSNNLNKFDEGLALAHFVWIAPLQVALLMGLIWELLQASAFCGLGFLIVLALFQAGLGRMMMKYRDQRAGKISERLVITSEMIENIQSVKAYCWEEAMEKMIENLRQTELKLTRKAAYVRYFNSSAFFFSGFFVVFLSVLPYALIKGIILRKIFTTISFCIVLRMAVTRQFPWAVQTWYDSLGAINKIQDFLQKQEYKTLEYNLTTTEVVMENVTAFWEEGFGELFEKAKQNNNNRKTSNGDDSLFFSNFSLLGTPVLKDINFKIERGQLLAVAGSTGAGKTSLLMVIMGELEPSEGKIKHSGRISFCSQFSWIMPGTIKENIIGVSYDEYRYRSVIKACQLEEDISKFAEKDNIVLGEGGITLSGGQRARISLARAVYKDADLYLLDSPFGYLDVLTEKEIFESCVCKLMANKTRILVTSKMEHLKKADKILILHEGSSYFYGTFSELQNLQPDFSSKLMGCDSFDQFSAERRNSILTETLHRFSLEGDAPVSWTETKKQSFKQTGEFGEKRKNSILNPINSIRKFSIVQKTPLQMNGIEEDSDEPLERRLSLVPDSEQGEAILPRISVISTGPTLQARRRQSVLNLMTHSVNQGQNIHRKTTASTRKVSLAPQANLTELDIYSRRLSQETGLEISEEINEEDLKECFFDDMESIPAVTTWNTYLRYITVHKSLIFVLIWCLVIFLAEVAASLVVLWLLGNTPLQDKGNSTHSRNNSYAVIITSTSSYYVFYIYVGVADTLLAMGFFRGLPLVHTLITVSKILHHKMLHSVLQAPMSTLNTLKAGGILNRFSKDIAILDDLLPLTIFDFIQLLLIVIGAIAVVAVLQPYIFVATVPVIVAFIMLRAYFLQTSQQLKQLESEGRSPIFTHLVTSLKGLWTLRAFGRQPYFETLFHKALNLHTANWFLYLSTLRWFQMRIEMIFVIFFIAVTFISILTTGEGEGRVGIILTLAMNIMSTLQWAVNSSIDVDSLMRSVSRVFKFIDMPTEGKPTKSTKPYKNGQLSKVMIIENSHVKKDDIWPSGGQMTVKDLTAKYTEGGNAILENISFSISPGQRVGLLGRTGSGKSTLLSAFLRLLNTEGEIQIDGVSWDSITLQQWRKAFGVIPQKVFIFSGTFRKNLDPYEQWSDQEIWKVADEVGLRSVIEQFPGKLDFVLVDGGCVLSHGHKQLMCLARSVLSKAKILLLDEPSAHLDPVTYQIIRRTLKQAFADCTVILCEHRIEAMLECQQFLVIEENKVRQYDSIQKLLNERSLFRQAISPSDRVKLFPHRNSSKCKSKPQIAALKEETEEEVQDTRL
Kind of test: Protocol 2: FRET membrane potential optical assay (VIPR), identification of correction compounds. Particulars: F508del CFTR modulator activity; compounds of Table 1; read-out: EC30. The class given is cell-based. A digest of the protocol:
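NIH3T3 mouse fibroblasts stably expressing F508del-CFTR incubated with compound 16 h at 37 °C in serum-free medium, then loaded with CC2-DMPE/DiSBAC2(3) FRET dyes. Channel activated with 10 μM forskolin plus 20 μM genistein in Cl⁻-free (gluconate) bath; depolarisation from Cl⁻ efflux read on VIPR II.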
What is called EC30 is the point of the concentration-response curve where the effect stands at 30%. In the case of `COc1ccc(Cl)cc1Oc1cccc(S(=O)(=O)NC(=O)c2cccnc2N2CC(C)CC2(C)C)n1` (centres unmarked) [Compound 2503, N—[[6-(5-chloro-2-methoxy-phenoxy)-2-pyridyl]sulfonyl]-2-(2,2,4-trimethylpyrrolidin-1-yl)pyridine-3-carboxamide], the EC30 is less than 3000 nM. Still for that read-out and setting: the value for `CC(C)Cc1ccn(-c2ccc(C(=O)NS(=O)(=O)c3cccnc3N)c(N3C[C@@H](C)CC3(C)C)n2)n1` [Compound 2036, N-[(2-amino-3-pyridyl)sulfonyl]-6-(3-isobutylpyrazol-1-yl)-2-[(4S)-2,2,4-trimethylpyrrolidin-1-yl]pyridine-3-carboxamide] was less than 3000 nM; that for `CC1CN(c2ncccc2C(=O)NS(=O)(=O)c2cccc(OCc3ccc(F)cc3)n2)C(C)(C)C1` (centres unmarked) [Compound 2524, N—[[6-[(4-fluorophenyl)methoxy]-2-pyridyl]sulfonyl]-2-(2,2,4-trimethylpyrrolidin-1-yl)pyridine-3-carboxamide] was less than 3000 nM. Same read-out and setting: the value for `C[C@@H]1CN(c2nc(-c3cccc4[nH]ccc34)ccc2C(=O)NS(=O)(=O)c2cccnc2N)C(C)(C)C1` [Compound 2478, N-[(2-amino-3-pyridyl)sulfonyl]-6-(1H-indol-4-yl)-2-[(4S)-2,2,4-trimethylpyrrolidin-1-yl]pyridine-3-carboxamide] was less than 3000 nM; that for `CC1CN(c2ncccc2C(=O)NS(=O)(=O)c2cccc(OC(C)c3ccccc3F)n2)C(C)(C)C1` (centres unmarked) [Compound 2408, N—[[6-[1-(2-fluorophenyl)ethoxy]-2-pyridyl]sulfonyl]-2-(2,2,4-trimethylpyrrolidin-1-yl)pyridine-3-carboxamide] was less than 3000 nM; that for `CC(C)COc1ccccc1-c1ccc(C(=O)NS(=O)(=O)c2cccnc2N)c(N2C[C@@H](C)CC2(C)C)n1` [Compound 2448, N-[(2-amino-3-pyridyl)sulfonyl]-6-(2-isobutoxyphenyl)-2-[(4S)-2,2,4-trimethylpyrrolidin-1-yl]pyridine-3-carboxamide] was less than 3000 nM.

With `CC1CN(c2ncccc2C(=O)NS(=O)(=O)c2cccc(OCc3ccc4ccccc4c3)n2)C(C)(C)C1` (centres unmarked) [Compound 2151, N—[[6-(2-naphthylmethoxy)-2-pyridyl]sulfonyl]-2-(2,2,4-trimethylpyrrolidin-1-yl)pyridine-3-carboxamide], the concentration for an effect of 30% (EC30) was less than 3000 nM. The same measure, in the same setting: in the case of `COc1cc(OC)cc(Oc2cccc(S(=O)(=O)NC(=O)c3cccnc3N3CC(C)CC3(C)C)n2)c1` (centres unmarked) [Compound 2293, N—[[6-(3,5-dimethoxyphenoxy)-2-pyridyl]sulfonyl]-2-(2,2,4-trimethylpyrrolidin-1-yl)pyridine-3-carboxamide] it was less than 3000 nM; in that of `CC1(C)C(Cc2ccccc2)CCN1c1ncccc1C(=O)NS(=O)(=O)c1cccc(N)n1` (centres unmarked) [Compound 2275, N-[(6-amino-2-pyridyl)sulfonyl]-2-(3-benzyl-2,2-dimethyl-pyrrolidin-1-yl)pyridine-3-carboxamide], 3000 to 10000 nM.

For the compound `C[C@@H]1CN(c2nc(-c3ccccc3O)ccc2C(=O)NS(=O)(=O)c2cccc(N)n2)C(C)(C)C1` [Compound 2555, N-[(6-amino-2-pyridyl)sulfonyl]-6-(2-hydroxyphenyl)-2-[(4S)-2,2,4-trimethylpyrrolidin-1-yl]pyridine-3-carboxamide], the EC30 is less than 3000 nM.

Consider `COc1ncc(-c2ccc(C(=O)NS(=O)(=O)c3cccnc3N)c(N3C[C@@H](C)CC3(C)C)n2)c(OC)n1` [Compound 2008, N-[(2-amino-3-pyridyl)sulfonyl]-6-(2,4-dimethoxypyrimidin-5-yl)-2-[(4S)-2,2,4-trimethylpyrrolidin-1-yl]pyridine-3-carboxamide], for which the concentration for an effect of 30% (EC30) fell in the range of 3000 to 10000 nM. Same read-out and setting: the value for `CC[C@H](C)COc1ccn(-c2ccc(C(=O)NS(=O)(=O)c3cccnc3N)c(N3C[C@@H](C)CC3(C)C)n2)n1` [Compound 2458, N-[(2-amino-3-pyridyl)sulfonyl]-6-[3-[(2S)-2-methylbutoxy]pyrazol-1-yl]-2-[(4S)-2,2,4-trimethylpyrrolidin-1-yl]pyridine-3-carboxamide] was less than 3000 nM.

For `COc1ccc(-c2ccc(C(=O)NS(=O)(=O)c3cccnc3N)c(N3C[C@@H](C)CC3(C)C)n2)c(OC)n1` [Compound 2091, N-[(2-amino-3-pyridyl)sulfonyl]-6-(2,6-dimethoxy-3-pyridyl)-2-[(4S)-2,2,4-trimethylpyrrolidin-1-yl]pyridine-3-carboxamide], the EC30 is less than 3000 nM. Same read-out and setting: the value for `CC(C)Cc1ccc(-c2cnc(N3CC(C)CC3(C)C)c(C(=O)NS(=O)(=O)c3cccc(N)n3)c2)cc1` (centres unmarked) [Compound 2395, N-[(6-amino-2-pyridyl)sulfonyl]-5-(4-isobutylphenyl)-2-(2,2,4-trimethylpyrrolidin-1-yl)pyridine-3-carboxamide] was less than 3000 nM; that for `C[C@@H]1CN(c2nc(C(C)(C)C)c(C3=CCN(C(=O)CC(C)(C)C)CC3)cc2C(=O)NS(=O)(=O)c2cccc(N)n2)C(C)(C)C1` [Compound 2344, N-[(6-amino-2-pyridyl)sulfonyl]-6-tert-butyl-5-[1-(3,3-dimethylbutanoyl)-3,6-dihydro-2H-pyridin-4-yl]-2-[(4S)-2,2,4-trimethylpyrrolidin-1-yl]pyridine-3-carboxamide] was less than 3000 nM.

The same test, now with this note: Table 3; compounds of Table 1 as modulators of CFTR activity; protocol not stated.
Consider `CC(C)COc1cc(F)cc(-c2ccc(C(=O)NS(=O)(=O)c3ccn[nH]3)c(N3CCCCCC3)n2)c1` [Compound 734, 2-(azepan-1-yl)-6-(3-fluoro-5-isobutoxy-phenyl)-N-(1H-pyrazol-5-ylsulfonyl)pyridine-3-carboxamide], for which the EC30 entry is “+++ (“+++” means <3 uM)”. On the same count and under the same terms, the value for `COc1cccc(S(=O)(=O)NC(=O)C2c3ccccc3CN2Cc2c(C)cc(C)cc2C)n1` (centres unmarked) [Compound 174, N-[(6-methoxy-2-pyridyl)sulfonyl]-2-[(2,4,6-trimethylphenyl)methyl]isoindoline-1-carboxamide] was “++ (“++” means between 3 uM and 10 uM)”; that for `COc1cc(C)cc(OC)c1-c1ccc(C(=O)NS(=O)(=O)c2cccc(N)n2)c(Oc2c(C)cc(C)cc2C)n1` [Compound 629, N-[(6-amino-2-pyridyl)sulfonyl]-6-(2,6-dimethoxy-4-methyl-phenyl)-2-(2,4,6-trimethylphenoxy)pyridine-3-carboxamide] was “+++ (“+++” means <3 uM)”; that for `Cc1cc(C)c(CN2CCc3ccccc3CC2C(=O)NS(=O)(=O)c2cc[nH]n2)c(C)c1` (centres unmarked) [Compound 628, N-(1H-pyrazol-3-ylsulfonyl)-3-[(2,4,6-trimethylphenyl)methyl]-1,2,4,5-tetrahydro-3-benzazepine-4-carboxamide] was “+++ (“+++” means <3 uM)”. The same measure, in the same setting: the value for `Cc1cc(C)c(Oc2nc(C(C)(C)C)ccc2C(=O)NS(=O)(=O)c2cc[nH]c(=O)c2)c(C)c1` [Compound 113, 6-tert-butyl-N-[(2-oxo-1H-pyridin-4-yl)sulfonyl]-2-(2,4,6-trimethylphenoxy)pyridine-3-carboxamide] was “++ (“++” means between 3 uM and 10 uM)”. Still for that read-out and setting: in the case of `Cc1cc(C)c(Cn2cc(C(C)(C)C)cc2C(=O)NS(=O)(=O)c2cccc(N)c2)c(C)c1` [Compound 195, N-(3-aminophenyl)sulfonyl-4-tert-butyl-1-[(2,4,6-trimethylphenyl)methyl]pyrrole-2-carboxamide] it was “+++ (“+++” means <3 uM)”; in that of `Cc1cc(C)c(CN2Cc3c(-c4ccccc4)cccc3C2C(=O)NS(=O)(=O)c2ccc[nH]c2=O)c(C)c1` (centres unmarked) [Compound 508, N-[(2-oxo-1H-pyridin-3-yl)sulfonyl]-4-phenyl-2-[(2,4,6-trimethylphenyl)methyl]isoindoline-1-carboxamide], “++ (“++” means between 3 uM and 10 uM)”.

As to `Cc1ccc(-c2ccc(C(=O)NS(=O)(=O)c3cccc(N)n3)c(N3CC(C)CC3(C)C)n2)c(C)c1` (centres unmarked) [Compound 614, N-[(6-amino-2-pyridyl)sulfonyl]-6-(2,4-dimethylphenyl)-2-(2,2,4-trimethylpyrrolidin-1-yl)pyridine-3-carboxamide], the 30% effect concentration (EC30) entry is given as “+++ (“+++” means <3 uM)”. Same read-out and setting: in the case of `CC(C)COc1cc(F)cc(-c2ccc(C(=O)NS(=O)(=O)c3cccc(N)n3)c(Oc3ccccc3)n2)c1` [Compound 376, N-[(6-amino-2-pyridyl)sulfonyl]-6-(3-fluoro-5-isobutoxy-phenyl)-2-phenoxy-pyridine-3-carboxamide] it was “+++ (“+++” means <3 uM)”; in that of `CC(C)CNc1cc(-c2ccc(C(=O)NS(=O)(=O)c3cccc(N)n3)c(N3CC(C)CC3(C)C)n2)ccn1` (centres unmarked) [Compound 523, N-[(6-amino-2-pyridyl)sulfonyl]-6-[2-(isobutylamino)-4-pyridyl]-2-(2,2,4-trimethylpyrrolidin-1-yl)pyridine-3-carboxamide], “+++ (“+++” means <3 uM)”. On the same count and under the same terms, the value for `Cc1cc(C)c(Oc2nc(C(C)(C)C)ccc2C(=O)N[S@](=N)(=O)c2cccc(N)c2)c(C)c1` (single isomer, unassigned) [Compound 53, N-[(3-aminophenyl)sulfonimidoyl]-6-tert-butyl-2-(2,4,6-trimethylphenoxy)pyridine-3-carboxamide] was “+++ (“+++” means <3 uM)”; that for `Cc1cc(C)c(Cn2c(C(=O)NS(=O)(=O)c3cccc(N)c3)cc3ccc(F)cc32)c(C)c1` [Compound 142, N-(3-aminophenyl)sulfonyl-6-fluoro-1-[(2,4,6-trimethylphenyl)methyl]indole-2-carboxamide] was “+++ (“+++” means <3 uM)”. On the same count and under the same terms, in the case of `Cc1cc(C)c(CN2Cc3ccccc3C2C(=O)NS(=O)(=O)c2cccc(O)c2)c(C)c1` (centres unmarked) [Compound 254, N-(3-hydroxyphenyl)sulfonyl-2-[(2,4,6-trimethylphenyl)methyl]isoindoline-1-carboxamide] it was “++ (“++” means between 3 uM and 10 uM)”; in that of `C[C@@H]1CC[C@H](C)N1c1nc(-c2ccc(OC3CCC3)nc2)ccc1C(=O)NS(=O)(=O)c1cccc(N)n1` [Compound 428, N-[(6-amino-2-pyridyl)sulfonyl]-6-[6-(cyclobutoxy)-3-pyridyl]-2-[(2S,5R)-2,5-dimethylpyrrolidin-1-yl]pyridine-3-carboxamide], “+++ (“+++” means <3 uM)”.
